Biological target: T1, recombinant hGYS2/GN1 protein (Homo sapiens, UniProt P54840)
T1 sequence (P54840 1-703): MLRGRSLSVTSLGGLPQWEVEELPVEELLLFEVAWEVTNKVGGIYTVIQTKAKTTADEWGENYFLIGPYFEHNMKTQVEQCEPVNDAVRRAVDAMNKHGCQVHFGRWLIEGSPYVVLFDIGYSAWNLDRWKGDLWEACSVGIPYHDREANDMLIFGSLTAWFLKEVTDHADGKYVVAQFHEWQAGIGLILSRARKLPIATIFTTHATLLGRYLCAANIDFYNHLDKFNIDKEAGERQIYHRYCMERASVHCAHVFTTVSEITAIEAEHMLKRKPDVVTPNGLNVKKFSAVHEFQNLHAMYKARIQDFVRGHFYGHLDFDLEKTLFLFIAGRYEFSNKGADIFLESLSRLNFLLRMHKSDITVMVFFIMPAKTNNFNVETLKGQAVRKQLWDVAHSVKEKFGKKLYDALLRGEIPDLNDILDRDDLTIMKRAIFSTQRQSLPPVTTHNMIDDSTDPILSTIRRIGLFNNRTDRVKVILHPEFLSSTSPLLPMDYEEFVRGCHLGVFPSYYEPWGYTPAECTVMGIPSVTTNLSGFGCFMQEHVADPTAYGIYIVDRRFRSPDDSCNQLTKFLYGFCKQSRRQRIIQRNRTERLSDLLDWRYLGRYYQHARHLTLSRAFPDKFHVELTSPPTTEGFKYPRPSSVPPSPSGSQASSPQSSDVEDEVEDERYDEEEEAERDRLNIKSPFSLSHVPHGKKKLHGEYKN
T1 sequence (P46976 1-350 partner): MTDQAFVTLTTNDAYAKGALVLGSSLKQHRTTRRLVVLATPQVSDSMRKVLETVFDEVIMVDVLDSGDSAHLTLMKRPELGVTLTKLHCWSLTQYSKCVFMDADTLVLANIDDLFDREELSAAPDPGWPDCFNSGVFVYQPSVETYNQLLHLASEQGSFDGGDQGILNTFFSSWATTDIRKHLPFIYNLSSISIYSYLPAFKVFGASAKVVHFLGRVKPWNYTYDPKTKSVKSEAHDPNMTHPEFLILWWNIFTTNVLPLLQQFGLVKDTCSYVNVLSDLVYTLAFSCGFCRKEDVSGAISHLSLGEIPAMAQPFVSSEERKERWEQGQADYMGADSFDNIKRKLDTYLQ
Experiment: GYS2 coupled enzyme assay (PK/LDH)
Format: biochemical
Conditions: geometric mean of at least 2 assay runs; NADH absorbance at 340 nm
Outline: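 Reaction in 50 mM Tris pH 7.5, 2 mM MgCl2, 100 mM KCl, 0.02% BSA, 1 mM TCEP, 2.5% DMSO, with 0.2% glycogen. Substrate buffer held 200 nM hGYS2/GN1, 2 mM each UDP-glucose, G6P and PEP, 0.6 mM NADH and PK/LDH, before 1:1 mixing. A340 slope over 10 min was control-normalized and Hill-fitted; IC50 = geometric mean of ≥2 runs, duplicates per run.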

- IC50: > 100 µM
SMILES: CC(C)c1ccc([C@@H](NC(=O)[C@H]2C[C@@H]2F)c2ccn[nH]2)cc1F (single isomer, unassigned) [compound 11]
